Three compounds from paper PMC10528299, “Targeting FAK/PYK2 with SJP1602 for Anti-Tumor Activity in Triple-Negative Breast Cancer” (Current Issues in Molecular Biology, 2023) can be followed below.

What all share (test): Eurofins kinase profiling
What all share (assay type): biochemical

For one assay, the target named is T1, ATM(h) (Homo sapiens, UniProt Q13315).
T1 construct: purchased Eurofins KinaseProfiler
Conditions: read-out: residual kinase activity ATM(h). Put shortly: (§1)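 Protein kinases were run in the KinaseProfiler radiometric format with the test compound at 1 µM, and activity was measured by incorporation of radiolabeled phosphate. The assays followed the provider's standard protocols as part of a 110-kinase panel.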

Another assay has as its target T2, ATR/ATRIP(h) (Homo sapiens, UniProt Q13535).
T2 construct: purchased Eurofins KinaseProfiler
The following applies: read-out: residual kinase activity ATR/ATRIP(h). Put shortly: as §1

In another assay the target is T3, B-Raf(h) (Homo sapiens, UniProt P15056).
T3 construct: purchased Eurofins KinaseProfiler
T3 sequence (P15056 whole entry): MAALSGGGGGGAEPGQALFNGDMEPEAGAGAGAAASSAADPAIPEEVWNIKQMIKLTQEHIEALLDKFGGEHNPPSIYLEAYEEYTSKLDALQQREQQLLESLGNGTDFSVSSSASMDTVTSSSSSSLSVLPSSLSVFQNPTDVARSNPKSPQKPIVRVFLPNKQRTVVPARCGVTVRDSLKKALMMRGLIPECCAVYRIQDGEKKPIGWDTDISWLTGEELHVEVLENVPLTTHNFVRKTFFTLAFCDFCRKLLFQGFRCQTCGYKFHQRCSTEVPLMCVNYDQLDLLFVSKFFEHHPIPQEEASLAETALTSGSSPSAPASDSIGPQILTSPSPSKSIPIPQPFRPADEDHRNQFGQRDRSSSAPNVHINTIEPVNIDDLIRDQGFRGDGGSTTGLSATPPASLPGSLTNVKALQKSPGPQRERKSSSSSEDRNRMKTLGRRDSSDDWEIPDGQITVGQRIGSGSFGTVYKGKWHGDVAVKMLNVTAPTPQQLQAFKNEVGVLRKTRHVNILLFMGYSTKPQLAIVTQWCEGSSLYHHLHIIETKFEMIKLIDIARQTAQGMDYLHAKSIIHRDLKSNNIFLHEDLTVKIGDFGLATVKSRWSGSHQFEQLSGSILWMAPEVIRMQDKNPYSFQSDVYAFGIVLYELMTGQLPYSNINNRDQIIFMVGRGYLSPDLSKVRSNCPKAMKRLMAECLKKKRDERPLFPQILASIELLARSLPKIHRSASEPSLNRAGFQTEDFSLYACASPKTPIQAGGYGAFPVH
Conditions: read-out: residual kinase activity B-Raf(h). Put shortly: as §1

Another assay concerns the target T4, CDK1/cyclinB(h) (Homo sapiens, UniProt P06493).
T4 construct: purchased Eurofins KinaseProfiler
The following applies: read-out: residual kinase activity CDK1/cyclinB(h). The procedure, abridged: as §1

Another assay addresses T5, CHK1(h) (Homo sapiens, UniProt O14757).
T5 construct: purchased Eurofins KinaseProfiler
T5 sequence (O14757 1-476): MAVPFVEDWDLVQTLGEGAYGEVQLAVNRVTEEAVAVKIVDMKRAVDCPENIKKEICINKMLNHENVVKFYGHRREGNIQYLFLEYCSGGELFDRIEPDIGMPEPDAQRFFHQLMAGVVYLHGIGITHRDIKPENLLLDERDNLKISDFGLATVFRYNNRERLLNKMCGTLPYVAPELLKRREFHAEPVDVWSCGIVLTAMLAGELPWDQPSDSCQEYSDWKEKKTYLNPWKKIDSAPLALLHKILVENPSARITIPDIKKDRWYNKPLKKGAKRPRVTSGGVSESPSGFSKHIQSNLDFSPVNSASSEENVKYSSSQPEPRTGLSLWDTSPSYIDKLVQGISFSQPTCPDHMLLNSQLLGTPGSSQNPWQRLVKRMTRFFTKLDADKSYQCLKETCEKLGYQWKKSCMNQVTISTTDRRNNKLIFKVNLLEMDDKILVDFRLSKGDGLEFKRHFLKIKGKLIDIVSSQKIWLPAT
Conditions: read-out: residual kinase activity CHK1(h). Put shortly:
as §1

The target of the next assay is T6, CK1γ1(h) (Homo sapiens, UniProt Q9HCP0).
T6 construct: purchased Eurofins KinaseProfiler
T6 sequence (Q9HCP0 whole entry): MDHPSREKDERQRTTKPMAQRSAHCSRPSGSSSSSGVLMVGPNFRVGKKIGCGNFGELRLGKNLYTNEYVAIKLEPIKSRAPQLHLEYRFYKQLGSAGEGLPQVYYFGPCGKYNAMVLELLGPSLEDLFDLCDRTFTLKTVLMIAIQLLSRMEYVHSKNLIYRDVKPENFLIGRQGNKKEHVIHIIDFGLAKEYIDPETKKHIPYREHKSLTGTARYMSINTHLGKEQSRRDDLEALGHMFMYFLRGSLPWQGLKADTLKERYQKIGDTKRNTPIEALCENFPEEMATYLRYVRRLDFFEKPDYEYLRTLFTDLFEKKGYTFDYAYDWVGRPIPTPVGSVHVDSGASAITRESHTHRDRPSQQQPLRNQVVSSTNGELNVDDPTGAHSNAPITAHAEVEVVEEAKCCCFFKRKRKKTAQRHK
The following applies: read-out: residual kinase activity CK1γ1(h). Put shortly: as §1

A further assay addresses T7, DDR2(h) (Homo sapiens, UniProt Q16832).
T7 construct: purchased Eurofins KinaseProfiler
T7 sequence (Q16832 22-855): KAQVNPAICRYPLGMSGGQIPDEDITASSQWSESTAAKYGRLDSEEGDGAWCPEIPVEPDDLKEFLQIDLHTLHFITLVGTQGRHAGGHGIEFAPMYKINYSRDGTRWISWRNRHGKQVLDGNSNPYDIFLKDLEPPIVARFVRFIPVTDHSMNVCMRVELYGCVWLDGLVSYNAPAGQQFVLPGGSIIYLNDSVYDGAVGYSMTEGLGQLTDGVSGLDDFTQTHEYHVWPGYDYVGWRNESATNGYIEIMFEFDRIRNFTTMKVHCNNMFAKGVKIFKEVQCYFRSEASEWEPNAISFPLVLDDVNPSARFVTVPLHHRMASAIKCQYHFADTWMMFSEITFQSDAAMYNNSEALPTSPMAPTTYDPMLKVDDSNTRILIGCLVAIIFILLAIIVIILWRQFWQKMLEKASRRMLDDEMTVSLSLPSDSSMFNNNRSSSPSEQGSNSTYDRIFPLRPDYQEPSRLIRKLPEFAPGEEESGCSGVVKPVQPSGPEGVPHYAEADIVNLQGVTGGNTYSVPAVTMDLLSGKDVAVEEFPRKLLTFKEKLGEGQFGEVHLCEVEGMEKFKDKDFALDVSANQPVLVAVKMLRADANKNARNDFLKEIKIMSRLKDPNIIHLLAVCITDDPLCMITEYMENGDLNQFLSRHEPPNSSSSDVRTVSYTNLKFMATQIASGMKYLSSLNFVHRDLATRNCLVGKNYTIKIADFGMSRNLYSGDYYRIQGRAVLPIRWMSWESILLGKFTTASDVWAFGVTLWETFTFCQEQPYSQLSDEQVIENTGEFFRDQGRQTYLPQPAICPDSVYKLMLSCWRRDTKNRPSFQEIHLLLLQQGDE
Conditions: read-out: residual kinase activity DDR2(h). Put shortly:
as §1

In a further assay the target is T8, Hck(h) (Homo sapiens, UniProt P08631).
T8 construct: purchased Eurofins KinaseProfiler
The following applies: read-out: residual kinase activity Hck(h). The procedure, abridged:
as §1

The next assay has as its target T9, PAK1(h) (Homo sapiens, UniProt Q13153).
T9 construct: purchased Eurofins KinaseProfiler
The following applies: read-out: residual kinase activity PAK1(h). The procedure, abridged:
as §1

In a further assay the target is T10, PAK4(h) (Homo sapiens, UniProt O96013).
T10 construct: purchased Eurofins KinaseProfiler
T10 sequence (O96013 whole entry): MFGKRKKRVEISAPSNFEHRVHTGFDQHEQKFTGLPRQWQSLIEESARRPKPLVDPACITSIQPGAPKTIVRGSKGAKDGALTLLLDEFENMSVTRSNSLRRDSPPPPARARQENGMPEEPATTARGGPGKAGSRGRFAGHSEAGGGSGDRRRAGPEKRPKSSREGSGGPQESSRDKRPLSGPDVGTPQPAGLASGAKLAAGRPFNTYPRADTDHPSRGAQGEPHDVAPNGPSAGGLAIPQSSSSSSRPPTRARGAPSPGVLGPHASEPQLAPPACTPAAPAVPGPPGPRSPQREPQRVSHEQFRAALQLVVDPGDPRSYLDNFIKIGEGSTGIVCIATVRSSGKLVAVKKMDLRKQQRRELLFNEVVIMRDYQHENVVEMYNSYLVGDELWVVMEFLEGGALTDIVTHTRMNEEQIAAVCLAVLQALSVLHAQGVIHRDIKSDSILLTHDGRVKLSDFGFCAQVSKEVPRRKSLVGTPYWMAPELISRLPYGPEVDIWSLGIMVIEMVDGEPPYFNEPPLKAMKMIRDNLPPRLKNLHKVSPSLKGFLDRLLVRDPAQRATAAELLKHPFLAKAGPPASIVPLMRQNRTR
Conditions: read-out: residual kinase activity PAK4(h). The procedure, abridged: as §1

Assay [1] has as its target T11, PI3 Kinase (p110a(E545K)/p85a)(h) (Homo sapiens, UniProt P42336, E545K).
T11 construct: purchased Eurofins KinaseProfiler
The following applies: read-out: residual kinase activity PI3 Kinase (p110a(E545K)/p85a)(h). Put shortly:
as §1

For assay [2], the target named is T12, PI3 Kinase (p110a(H1047R)/p85a)(h) (Homo sapiens, UniProt P42336, H1047R).
T12 construct: purchased Eurofins KinaseProfiler
The following applies: read-out: residual kinase activity PI3 Kinase (p110a(H1047R)/p85a)(h). Put shortly: as §1

The next assay concerns the target T13, Ros(h) (Homo sapiens, UniProt P08922).
T13 construct: purchased Eurofins KinaseProfiler
The following applies: read-out: residual kinase activity Ros(h). The procedure, abridged: as §1

The next assay addresses T14, Snk(h) (Homo sapiens, UniProt Q9NYY3).
T14 construct: purchased Eurofins KinaseProfiler
Conditions: read-out: residual kinase activity Snk(h). The procedure, abridged:
as §1

The next assay has as its target T15, ZIPK(h) (Homo sapiens, UniProt O43293).
T15 construct: purchased Eurofins KinaseProfiler
Conditions: read-out: residual kinase activity ZIPK(h). Put shortly: as §1

Another assay has as its target T16, cSRC(h) (Homo sapiens, UniProt P12931).
T16 construct: purchased Eurofins KinaseProfiler
The following applies: read-out: residual kinase activity cSRC(h). Put shortly:
as §1

T14 sequence (Q9NYY3 whole entry): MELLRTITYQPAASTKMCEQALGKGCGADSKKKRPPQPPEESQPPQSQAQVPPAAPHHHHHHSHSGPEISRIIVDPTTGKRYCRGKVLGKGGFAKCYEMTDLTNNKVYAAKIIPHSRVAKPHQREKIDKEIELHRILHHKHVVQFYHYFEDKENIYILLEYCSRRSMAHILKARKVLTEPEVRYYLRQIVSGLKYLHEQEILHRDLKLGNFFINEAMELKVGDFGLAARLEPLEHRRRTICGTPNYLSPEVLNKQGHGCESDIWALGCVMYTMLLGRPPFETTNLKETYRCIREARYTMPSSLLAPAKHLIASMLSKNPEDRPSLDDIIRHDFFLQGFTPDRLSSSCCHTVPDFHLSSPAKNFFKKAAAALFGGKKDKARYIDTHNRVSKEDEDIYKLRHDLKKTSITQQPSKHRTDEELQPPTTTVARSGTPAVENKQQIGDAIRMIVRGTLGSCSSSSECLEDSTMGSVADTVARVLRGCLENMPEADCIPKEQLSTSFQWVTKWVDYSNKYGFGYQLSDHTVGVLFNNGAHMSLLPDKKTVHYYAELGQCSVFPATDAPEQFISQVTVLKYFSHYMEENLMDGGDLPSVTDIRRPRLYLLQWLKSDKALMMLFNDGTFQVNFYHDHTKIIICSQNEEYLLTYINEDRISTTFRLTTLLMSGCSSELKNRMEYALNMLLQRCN
T15 sequence (O43293 whole entry): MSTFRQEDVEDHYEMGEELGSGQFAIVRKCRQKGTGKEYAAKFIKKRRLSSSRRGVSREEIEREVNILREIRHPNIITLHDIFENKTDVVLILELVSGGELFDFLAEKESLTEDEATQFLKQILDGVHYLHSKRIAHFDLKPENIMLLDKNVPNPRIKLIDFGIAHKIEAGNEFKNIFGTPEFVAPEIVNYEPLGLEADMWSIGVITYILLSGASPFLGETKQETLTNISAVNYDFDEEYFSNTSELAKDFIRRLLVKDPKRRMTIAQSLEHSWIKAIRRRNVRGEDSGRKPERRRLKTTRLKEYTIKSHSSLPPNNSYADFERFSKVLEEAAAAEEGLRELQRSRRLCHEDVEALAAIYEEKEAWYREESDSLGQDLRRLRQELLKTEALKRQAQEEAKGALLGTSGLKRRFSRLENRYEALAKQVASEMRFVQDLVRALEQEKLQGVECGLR
T4 sequence (P06493 whole entry): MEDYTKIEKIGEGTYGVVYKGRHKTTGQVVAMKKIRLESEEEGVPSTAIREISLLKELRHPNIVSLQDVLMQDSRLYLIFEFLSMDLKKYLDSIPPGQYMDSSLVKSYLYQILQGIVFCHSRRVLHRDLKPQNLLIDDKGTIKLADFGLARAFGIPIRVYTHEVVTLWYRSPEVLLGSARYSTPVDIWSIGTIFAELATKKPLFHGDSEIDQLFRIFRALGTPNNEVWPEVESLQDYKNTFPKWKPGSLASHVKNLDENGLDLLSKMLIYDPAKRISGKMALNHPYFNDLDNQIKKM
T4 sequence (P14635 whole entry partner): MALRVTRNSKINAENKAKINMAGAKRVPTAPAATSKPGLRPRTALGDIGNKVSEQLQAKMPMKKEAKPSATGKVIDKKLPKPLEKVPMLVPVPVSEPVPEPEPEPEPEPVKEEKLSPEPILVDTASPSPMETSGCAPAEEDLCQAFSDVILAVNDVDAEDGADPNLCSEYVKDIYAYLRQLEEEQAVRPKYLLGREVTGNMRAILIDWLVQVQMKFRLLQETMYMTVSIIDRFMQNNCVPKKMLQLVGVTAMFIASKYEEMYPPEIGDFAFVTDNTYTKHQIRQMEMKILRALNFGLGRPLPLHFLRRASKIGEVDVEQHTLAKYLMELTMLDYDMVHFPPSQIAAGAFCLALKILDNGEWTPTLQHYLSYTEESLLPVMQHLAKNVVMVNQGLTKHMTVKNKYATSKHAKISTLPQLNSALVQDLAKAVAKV
T16 sequence (P12931 whole entry): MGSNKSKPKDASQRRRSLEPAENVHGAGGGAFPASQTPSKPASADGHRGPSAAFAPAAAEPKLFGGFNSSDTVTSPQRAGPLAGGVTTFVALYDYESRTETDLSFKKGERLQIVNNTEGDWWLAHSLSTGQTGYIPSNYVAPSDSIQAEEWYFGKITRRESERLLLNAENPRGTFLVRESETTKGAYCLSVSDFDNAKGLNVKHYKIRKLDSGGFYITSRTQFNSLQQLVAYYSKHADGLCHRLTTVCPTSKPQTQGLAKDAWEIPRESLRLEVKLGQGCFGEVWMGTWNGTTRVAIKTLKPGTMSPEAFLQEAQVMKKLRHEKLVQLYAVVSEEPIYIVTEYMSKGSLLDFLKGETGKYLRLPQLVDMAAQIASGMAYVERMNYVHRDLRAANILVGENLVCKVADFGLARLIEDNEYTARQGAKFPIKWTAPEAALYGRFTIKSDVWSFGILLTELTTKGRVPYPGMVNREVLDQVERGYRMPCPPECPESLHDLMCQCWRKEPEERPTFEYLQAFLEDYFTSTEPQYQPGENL
T9 sequence (Q13153 whole entry): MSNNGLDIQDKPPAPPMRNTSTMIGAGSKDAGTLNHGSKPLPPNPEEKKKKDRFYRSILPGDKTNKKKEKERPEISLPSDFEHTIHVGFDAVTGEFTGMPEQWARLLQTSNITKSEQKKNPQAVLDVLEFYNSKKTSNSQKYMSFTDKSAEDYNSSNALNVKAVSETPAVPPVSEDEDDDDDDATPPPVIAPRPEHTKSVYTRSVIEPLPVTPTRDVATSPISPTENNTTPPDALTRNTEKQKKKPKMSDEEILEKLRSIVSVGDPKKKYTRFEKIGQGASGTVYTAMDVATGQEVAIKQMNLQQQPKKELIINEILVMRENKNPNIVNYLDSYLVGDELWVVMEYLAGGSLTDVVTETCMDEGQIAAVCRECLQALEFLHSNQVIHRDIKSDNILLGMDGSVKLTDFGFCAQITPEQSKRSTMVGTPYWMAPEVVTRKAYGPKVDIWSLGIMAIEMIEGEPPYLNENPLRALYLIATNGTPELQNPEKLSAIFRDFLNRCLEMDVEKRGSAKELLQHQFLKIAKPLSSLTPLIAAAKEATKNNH

`CONC(=O)c1ccccc1Nc1cc(Nc2cc(C)nn2C(C)C)ncc1Cl` [GSK2256098]: the remaining activity at 1 µM was 94% on ATM(h); 101% at ATR/ATRIP(h); 99% at B-Raf(h); 97% at CDK1/cyclinB(h); 85% on CHK1(h); 99% at CK1γ1(h). Besides, the remaining activity at 1 µM at DDR2(h) was determined as 138%; at Hck(h), 100%; at PAK1(h), 91%; at PAK4(h) it was 93%; in assay [1], 93%; in assay [2], 97%. Further, the remaining activity at 1 µM at Ros(h) is 103%; on Snk(h), 113%; on ZIPK(h) it was 93%; on cSRC(h), 88%.

With `CNC(=O)c1cccc(C)c1Nc1nc(Nc2ccc(N3CCN(C4C5CC6CC4CC(O)(C6)C5)CC3)cc2OC)ncc1C(F)(F)F` (stereo not drawn) [SJP1602, 2-((2-((4-(4-((2s,5r)-5-hydroxyadamantan-2-yl)piperazin-1-yl)-2-methoxyphenyl)amino)-5-(trifluoromethyl)pyrimidin-4-yl)amino)-N,3-dimethylbenzamide], the remaining activity at 1 µM at ATM(h) amounted to 98%; at ATR/ATRIP(h) it was 97%; on B-Raf(h), 93%; at CDK1/cyclinB(h), 88%; at CHK1(h) it was 62%; on CK1γ1(h) it was 105%. The remaining activity at 1 µM turned out to be 102% at DDR2(h); 105% on Hck(h); 119% at PAK1(h); 85% at PAK4(h); 98% in assay [1]; 97% in assay [2]. Further, the remaining activity at 1 µM at Ros(h) was found to be 104%; at Snk(h) it was 105%; on ZIPK(h), 100%; on cSRC(h), 99%.

With `CNC(=O)c1ccc(Nc2ncc(C(F)(F)F)c(NCc3nccnc3N(C)S(C)(=O)=O)n2)cc1` [VS-6063, Defactinib], the remaining activity at 1 µM on ATM(h) stood at 63%; on ATR/ATRIP(h) it was 92%; at B-Raf(h), 83%; at CDK1/cyclinB(h), 14%; at CHK1(h), 58%; at CK1γ1(h), 81%. Moreover, the remaining activity at 1 µM at DDR2(h) was 94%; at Hck(h), 99%; on PAK1(h) it was 79%; on PAK4(h), 42%; in [1] it was 100%; in assay [2] it was 101%. Also, the remaining activity at 1 µM on Ros(h) stood at 106%; on Snk(h) it was 64%; at ZIPK(h), 97%; on cSRC(h), 72%.
